Values quoted from earlier work in patent US6680310B2, “Methods for preventing antipsychotic-induced weight gain” (Corcept Therapeutics, Inc., priority 2001, dated 2004).

Conditions: in one study (Kawai, supra)

## CC#C[C@]1(O)CC[C@H]2[C@@H]3CCC4=CC(=O)CCC4=C3[C@@H](c3ccc(N(C)C)cc3)C[C@@]21C [Mifepristone, 17-beta-hydroxy-11-beta-(4-dimethyl-aminophenyl)-17-alpha(1-propynyl)-estra-4,9-dien-3-one]
  fraction of the daily dose excreted in the urine: less than 0.5%
